# Results: patent US12029742B2, “Compositions and methods for the repair of myelin” (Duke University, priority 2014, dated 2024)
# Experiments:
# [1] = test system: primary neural stem cells from neonatal mice; assay: In vitro oligodendrocyte differentiation from neural stem cells; type: cell-based
# Method: To determine the impact of oxysterol exposure on cellular differentiation, primary neural stem cells from neonatal mice were cultured in chamber slides. Cells were cultured in media alone (control) or 1 μM 20α-hydroxycholesterol for 7 days were then allowed to differentiate for 18 days. The differentiated cells were immunostained for markers of oligodendrocytes (Olig2 and CNPase) and visualized on a confocal microscope (FIG. 1A). […] Protein samples from control and 20α-hydroxycholesterol treated stem cell cultures were then fractionated and probed for markers of the oligodendrocyte lineage.
# [2] = test system: olig2+ cells in the corpus callosum; assay: In vivo oligodendrocyte differentiation in uninjured postnatal mice; conditions: uninjured five-day old mice, 100 mg/kg/day subcutaneously, 4 daily doses, analyzed five days after final injection; vs vehicle; p<0.02
# Method: 20α-hydroxycholesterol was administered to uninjured postnatal mice during the normal myelination period to determine if oxysterol exposure increased the numbers of oligodendrocytes in vivo. Five-day old mice were administered 4 daily doses of vehicle control (n=4) or 20α-hydroxycholesterol (n=4) subcutaneously (100 mg/kg/day) and rested. Five days after the final injection, the mice were analyzed to quantify the number of olig2+ cells in the corpus callosum (FIG. 2A, FIG. 2B).
# [3] = test system: olig2APC+ oligodendrocytes in the periventricular white matter of the corpus callosum; assay: Perinatal mouse model of sepsis-associated myelin injury, stereological oligodendrocyte counting; type: in vivo, mice; conditions: sepsis injury on postnatal day 5; 100 mg/kg/day subcutaneous for 5 days from 24 hours after injury; stereology on postnatal day 25; p=0.001
# Method: Quantification of oligodendrocyte cell numbers in the brain is critical to determining the impact of oxysterol therapy. Stereology is a useful research tool used by neuroscientists to provide accurate and unbiased estimates of cell numbers within specified brain regions. The number of oligodendrocyte numbers is determined using Stereo Investoigator™ software (MBF Bioscience) and a Zeiss Axiolmager M2 motorized fluorescent microscope with Apotome structured illumination. Perfusion fixed cryoprotected brains are frozen sectioned at […] and collected free-floating in phosphate buffered saline. […] Olig2+APC+ nucleated cells are then counted throughout the corpus callosum using a 63× oil objective lens.
# Perinatal bowel perforation is a common complication of premature birth and is strongly linked to myelin injury and cerebral palsy. Using a perinatal mouse model of bowel perforation to induce sepsis-associated diffuse myelin injury on postnatal day 5, sepsis mice were determined to have a 60% reduction of mature oligodendrocytes at postnatal day 25 (FIG. 3).
# To determine the efficacy of oxysterol therapy, the perinatal mouse model was employed to induce injury in mice on postnatal day 5. […] Coronal sections of the brains were analyzed using stereology on postnatal day 25 to determine the number of olig2APC+ oligodendrocytes in the periventricular white matter of the corpus callosum. […]
# [4] = test system: sepsis-induced myelin injury; assay: CatWalk gait analysis of mice after perinatal sepsis-induced myelin injury; type: in vivo; conditions: sepsis-injured mice
# Excerpt: The detection of differences in locomotor function is an important tool for the assessment of the severity of many conditions that affect the central nervous system (CNS), peripheral nervous system (PNS) and skeletal structures or muscles. A gait analysis system, such as the CatWalk™ XT, provides automatic and sensitive detection of a full range of parameters related to footprints and the dynamics of gait in animal testing.
# The impact of oxysterol therapy on motor function in injured mice was also determined. Mice were subjected to sepsis-induced myelin injury on postnatal day 5. Twenty-four hours after injury, septic mice were divided into a vehicle control group and an oxysterol treated group. Treatment with 20α-hydroxycholesterol (100 mg/kg/day) was carried out daily for five days. At two months of age (adult), mice were evaluated on a CatWalk Gait Analysis System (Noldus Inc.). The gait analysis system identified multiple disturbances in the gait of untreated mature mice that survived perinatal sepsis. However, these gait disturbances were not present in mice treated with 20α-hydroxycholesterol.
# Regularity Index: Regularity Index is a measure of interpaw coordination, and disturbances in regularity may be a result of cerebral injury. The Regularity Index was determined for uninjured control mice (FIG. 4A, FIG. 4D), sepsis mice (FIG. 4B, FIG. 4D), and septic mice treated with the oxysterol 20HC (FIG. 4C, FIG. 4D).
# Stand and step cycle: Stand and step cycle are measures of the length of time the animal's paws are in contact with the platform as they walk. Increased stand and step cycle times are measures of gait instability.
# Swing and swing speed: Swing and swing speed are measures of the animals “rocking” as they walk. While the swing was increased in perinatal sepsis survivors (FIG. 5C), the swing speed was decreased in sepsis survivors (FIG. 5D) consistant with an unsteady gait.
# [5] = biological target: smoothened (SMO) (Homo sapiens, UniProt Q99835); conditions: fibroblast cell culture systems; recent studies; cited from earlier work
# Chain of smoothened (SMO) (Q99835 28-787): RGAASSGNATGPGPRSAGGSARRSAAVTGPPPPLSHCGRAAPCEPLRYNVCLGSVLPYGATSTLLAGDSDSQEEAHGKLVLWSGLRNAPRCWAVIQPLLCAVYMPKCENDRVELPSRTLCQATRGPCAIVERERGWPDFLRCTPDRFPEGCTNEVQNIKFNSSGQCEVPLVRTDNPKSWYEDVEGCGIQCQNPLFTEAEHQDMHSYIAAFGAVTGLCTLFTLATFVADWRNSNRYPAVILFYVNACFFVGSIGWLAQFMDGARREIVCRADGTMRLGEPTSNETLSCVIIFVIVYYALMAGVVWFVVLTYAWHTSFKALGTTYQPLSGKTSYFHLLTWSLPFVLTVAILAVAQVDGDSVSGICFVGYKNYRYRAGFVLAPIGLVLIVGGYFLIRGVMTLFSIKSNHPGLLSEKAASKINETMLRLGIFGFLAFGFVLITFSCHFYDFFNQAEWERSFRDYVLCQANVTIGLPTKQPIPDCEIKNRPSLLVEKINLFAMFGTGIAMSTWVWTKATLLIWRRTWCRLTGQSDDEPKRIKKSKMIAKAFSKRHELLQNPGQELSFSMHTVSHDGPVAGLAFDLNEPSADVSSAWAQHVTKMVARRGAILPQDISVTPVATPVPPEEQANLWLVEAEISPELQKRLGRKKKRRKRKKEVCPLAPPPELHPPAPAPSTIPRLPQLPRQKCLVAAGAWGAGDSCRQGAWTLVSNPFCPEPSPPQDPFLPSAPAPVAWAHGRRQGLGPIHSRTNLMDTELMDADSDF
# [6] = test system: Primary neural stem cells; assay: In vitro oligodendrocyte differentiation from neural stem cells with breast milk-associated oxysterols (western blot); type: cell-based; conditions: 1 μm and 0.5 μm for five days, then 18 days differentiation; FIG. 8
# Method: FIG. 8 is a western blot analysis. Stem cells were treated with oxysterols at doses indicated for 5 days then allowed to differentiate for 18 days. Primary neural stem cells were treated with 24-hydroxycholesterol and 25-hydroxycholesterol at 1 μm and 0.5 μm for five days, then allowed to differentiate for 18 days. Protein lysates were probed for oligodendrocyte-associated proteins CNPase and myelin basic protein (MBP).
smiles,measurement,setting,value
CC(C)CCC[C@](C)(O)[C@H]1CC[C@H]2[C@@H]3CC=C4C[C@@H](O)CC[C@]4(C)[C@H]3CC[C@@]21C [20α-hydroxycholesterol],"olig2+ CNPase+ cells (oligodendrocytes), cell counting","[1]; 1 μM for 7 days, then 18 days differentiation, vs media alone, p<0.02, FIG. 1C",significant increase
same,"CNPase, Olig2 and myelin basic protein (MBP), Western blot","[1]; 1 μM treated stem cell cultures vs control, FIG. 1D",increase
same,olig2+ cell population in the corpus callosum,[2],significant increase
same,amount of oligodendrocytes (olig2APC+) within the periventricular white matter,[3],significantly increased
same,gait disturbances (CatWalk Gait Analysis System),"[4]; 100 mg/kg/day daily for five days, evaluated at two months of age",not present
same,Regularity Index (interpaw coordination),"[4]; 100 mg/kg/day daily for five days, two months of age, FIG. 4D",completely reversed any observed deficits
same,Swing and swing speed,"[4]; FIG. 5C, 5D",reversed all of these measures of gait disturbances
same,SHH pathway activation via direct binding to smoothened (SMO),[5],activate the SHH pathway
CC(C)CC[C@@H](O)[C@@H](C)[C@H]1CC[C@H]2[C@@H]3CC=C4C[C@@H](O)CC[C@]4(C)[C@H]3CC[C@]12C [22α-hydroxycholesterol],SHH pathway activation via direct binding to smoothened (SMO),[5],activate the SHH pathway
CC(C)C(O)CC[C@@H](C)[C@H]1CC[C@H]2[C@@H]3CC=C4C[C@@H](O)CC[C@]4(C)[C@H]3CC[C@]12C (some centres unmarked) [24-hydroxycholesterol],expression of oligodendrocyte-associated proteins CNPase and MBP (western blot),[6],induced expression
C[C@H](CCCC(C)(C)O)[C@H]1CC[C@H]2[C@@H]3CC=C4C[C@@H](O)CC[C@]4(C)[C@H]3CC[C@]12C [25-hydroxycholesterol],expression of oligodendrocyte-associated proteins CNPase and MBP (western blot),[6],induced expression
